The source of these data is patent EP3871665B1, “INHIBITORS OF RNA-BINDING PROTEINS AS ANTI-CANCER DRUGS” (priority 2020, dated 2021).

The subject of data set [1] is ES-2 IGF2BP1-KO cells re-expressing GFP-IGF2BP1. The data set can be described thus: 2D growth / proliferation (cell confluence, IncuCyte S3), cells re-expressing wild type IGF2BP1. The class given is cell-based. How it is done:
(§1) Statistical significance was analyzed by logrank test. […] Modified cysteines are highlighted in bold and upper position. […] Right: Local atomic fluctuations around cysteine residues. […] (A-C) RNA-dependent protein-protein association assay. […] EV (1) indicates mock-transfected controls. Representative Western (A) and Northern (C) blots are shown. P, pulldown; I, input. […] A representative Western blot analysis is shown in (C). […] Six mice were analyzed per condition. Error bars indicate standard deviation. […] Error bars indicate standard deviation of three analyses. […] DMSO-treated cells were used for comparisons. […] (*) p < 0.05, (**) p < 0.01, (***) p < 0.001. […] Data represent the mean ± SD (n = 6). […] (**) p < 0.01.
To probe if the identified residues are druggable targets, a search for chemical probes with exquisite chemo- and regioselectivity to cysteine residues was performed and their ability to target IGF2BP1's Cys253 and Cys336 was tested, whilst functioning as inhibitors. […] Both probes are known to covalently modify cysteine residues in a highly site-specific manner. […] These probes were then used in ES-2 IGF2BP1 KO cells, re-expressing either the wild type version of IGF2BP1 or the C253/336A mutant. The initial assay was set to observe if the probes influence the 2D growth, determined here as cell density, of ES-2 cells in a IGF2BP1-Cys253/336-dependent manner. IC50 values were determined by measuring the cell viability or cell confluence of cells incubated with increasing concentrations of J2 and J5.

Data set [2] can be described thus: Drug-likeness assessment / solubility in the assays. The class given is physicochemical.
For data set [3], the system named is ES-2 IGF2BP1-KO cells re-expressing GFP-IGF2BP1C253/336A. The data set can be described thus: 2D growth / proliferation (cell confluence, IncuCyte S3), cells re-expressing C253/336A mutant. The class given is cell-based. Here is the method:
as §1
(§2) To probe if the identified residues are druggable targets, a search for chemical probes with exquisite chemo- and regioselectivity to cysteine residues was performed and their ability to target IGF2BP1's Cys253 and Cys336 was tested, whilst functioning as inhibitors. […] Both probes are known to covalently modify cysteine residues in a highly site-specific manner. […] The initial assay was set to observe if the probes influence the 2D growth, determined here as cell density, of ES-2 cells in a IGF2BP1-Cys253/336-dependent manner. IC50 values were determined by measuring the cell viability or cell confluence of cells incubated with increasing concentrations of J2 and J5.

Data set [4] has as its system ES-2 IGF2BP1-KO cells re-expressing the wild type GFP-IGF2BP1. The data set can be described thus: Cell viability (CellTiter Glo), cells re-expressing wild type IGF2BP1. The class given is cell-based. Here is the method:
as §1
To probe if the identified residues are druggable targets, a search for chemical probes with exquisite chemo- and regioselectivity to cysteine residues was performed and their ability to target IGF2BP1's Cys253 and Cys336 was tested, whilst functioning as inhibitors. […] The initial assay was set to observe if the probes influence the 2D growth, determined here as cell density, of ES-2 cells in a IGF2BP1-Cys253/336-dependent manner. IC50 values were determined by measuring the cell viability or cell confluence of cells incubated with increasing concentrations of J2 and J5.

For data set [5], the system named is ES-2 IGF2BP1-KO cells re-expressing GFP-IGF2BP1C253/336A. The data set can be described thus: Spheroid Matrigel invasion assay, cells re-expressing C253/336A mutant. The settings on record: up to 6 µM; 24h post-treatment. The class given is cell-based.
Experimental: (§3) (A) Representative images of tumor cell spheroids (top panel), tumor cell invasion in matrigel (middle panel), and spheroid growth in anoikis resistance assays (lower panel) observed for ES-2 IGF2BP1-KO cells re-expressing GFP (1), wild type GFP-IGF2BP1 (2) or GFP- IGF2BP1-C253/336A (3). (B) Quantification of 2 independent experiments (n=9) shown in (A): spheroid viability (left panel), invasion index (middle panel) and anoikis resistance (right panel). Statistical significance was calculated by unpaired t-test as indicated. […] Tumor formation was determined for ES-2 IGF2BP1-KO cells re-expressing wild type IGF2BP1 (GFP-I1, 1) or GFP-IGF2BP1-C253/336A (GFP-C253/336A, 2). The tumor volume was measured at indicated time points post-injection by a caliper, (A). The final volume (B) and weight (C) of removed tumors were determined and are shown by boxplots. Representative images of macroscopic tumors acquired by non-invasive infrared imaging in mice (D) and excised tumors 17d post-injection (E). Six mice were analyzed per condition. Error bars indicate standard deviation. Statistical significance was calculated by unpaired t test with Welch's correction or ordinary one-way ANOVA with Tukey's multiple comparison test. […] 2000 cells either from ES-2 IGF2BP1-KO cells re-expressing GFP-IGF2BP1 or GFP-IGF2BP1C253/336A were seeded in a 96 well plate.
The test system of data set [6] is xenografts bearing ES-2 cells re-expressing the wild-type IGF2BP1 (GFP-IGF2BP1). The following applies: 0.1 mg/kg daily intraperitoneally; GFP-IGF2BP1 tumors.
Experimental: as §3
For data set [7], the system named is panel of cancer cell lines. The data set can be described thus: Cell proliferation (IncuCyte S3 confluence) in a panel of cancer cell lines. The class given is cell-based. The settings on record: 72h.
For data set [8], the system named is ES-2 IGF2BP1-KO cells re-expressing the GFP-IGF2BP1C253/336A mutant. The data set can be described thus: Cell viability (CellTiter Glo), cells re-expressing C253/336A mutant. The following applies: cell viability 72h, read-out: IC50C253/336A. The class given is cell-based. How it is done:
as §1, §2
On the technique in general: Cellular ATP, detected with luciferase, serves as a proxy for viable cell number.

For data set [9], the system named is tumors bearing ES-2 cells re-expressing the C253/336A mutant. Kind of data set: Xenograft tumor growth, ES-2 cells re-expressing C253/336A mutant. The following applies: 0.1 mg/kg daily intraperitoneally. Type of data set: in vivo, female SCID mice.
Experimental: as §3
In data set [10] the target is T1, IGF2BP1 (Homo sapiens, UniProt Q9NZI8).
T1 construct: made in house
T1 sequence (Q9NZI8 whole entry): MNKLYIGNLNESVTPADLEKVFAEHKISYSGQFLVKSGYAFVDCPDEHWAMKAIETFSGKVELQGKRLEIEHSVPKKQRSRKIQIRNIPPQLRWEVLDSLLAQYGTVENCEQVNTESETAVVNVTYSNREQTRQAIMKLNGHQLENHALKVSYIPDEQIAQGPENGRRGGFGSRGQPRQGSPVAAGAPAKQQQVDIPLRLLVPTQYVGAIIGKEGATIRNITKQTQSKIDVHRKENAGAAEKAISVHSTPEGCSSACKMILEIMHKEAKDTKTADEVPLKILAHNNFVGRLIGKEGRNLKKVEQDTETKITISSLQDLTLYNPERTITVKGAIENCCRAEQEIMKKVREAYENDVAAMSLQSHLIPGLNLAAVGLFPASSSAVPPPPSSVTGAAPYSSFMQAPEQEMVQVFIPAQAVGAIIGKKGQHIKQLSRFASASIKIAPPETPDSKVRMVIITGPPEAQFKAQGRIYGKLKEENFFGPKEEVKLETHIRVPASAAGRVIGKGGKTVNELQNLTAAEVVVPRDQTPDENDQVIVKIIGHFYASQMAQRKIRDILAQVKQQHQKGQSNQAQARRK
Kind of data set: Site-specific protein modification (Cys-to-Dha conversion), LC-MS/MS readout. Type of data set: biochemical. How it is done:
as §1
A multiple-Cys-containing RNA-binding protein with a recognized role in cancer is selected, for example and not limited to, the Insulin-like growth factor 2 mRNA binding protein 1 (IGF2BP1). It is then expressed in bacteria (not limited to), purified and submitted to site-specific protein modification reactions in vitro using cysteine-directed probes (Cys-to-Dha conversion), for example and not limited to, the compound 2,5 dibromohexanediamide (1). The reactions are performed in mild conditions, PBS buffer pH 8.0 for 1 h at 37∘C, using increasing equivalents of 1. The resulting reaction is then purified with a spin column and submitted to trypsin digestion followed by LC-MS/MS using standard protocols. The identification of Dha-modified peptides is performed by adding the corresponding mass shift of 33.9878 m/z (Dha) as a post-translational modification in the global search for modifications. The Dha conversion of specific cysteine residues is located within the primary sequence of the protein of interest (POI) to uncover preferentially modified cysteine residues.

For `O=C(/C=C/C(=O)c1ccccc1)NCCNc1ccc([N+](=O)[O-])c2nonc12` [J2, (E)-N-(2-((7-nitrobenzo[c][1,2,5]oxadiazol-4-yl)amino)ethyl)-4-oxo-4-phenylbut-2-enamide], the “growth of ES-2 cells” value in data set [1] (1µM, cells re-expressing the wild type protein) is reported as “strong impairment”. For the same compound, the IC50 was found to be 840 nM in data set [1] (cells expressing wild type IGF2BP1, confluence at 72h, DMSO = 100% growth) and 2200 nM in data set [3] (Homo sapiens, ES-2 cells expressing the C253/336A mutant, confluence at 72h). Moreover, the selective cytoreductive effect in data set [1] (wild type vs C253/336A mutant cells) was 2 fold. Further, the solubility entry in data set [2] is “solubility problems”. For the same compound, the growth of cells result in data set [3] (1µM, cells expressing the C253/336A mutant) is “no substantial impact”.

Regarding `CCNC(=O)/C=C/C(=O)c1ccccc1` [J5, (E)-N-ethyl-4-oxo-4-phenylbut-2-enamide], the IC50 in data set [4] (cell viability 72h, CellTiter Glo) turned out to be 970 nM; in data set [8], 1750 nM. The “selectivity to ES-2 cells re-expressing the wild type IGF2BP1” value in data set [4] (wild type vs C253/336A) is on record as 1.8 fold. The invasion result in data set [5] is reported as “unchallenged invasion”. Moreover, the “anti-tumor effect (tumor volume, tumor mass)” value in [6] is listed as “strong anti-tumor effect”; in data set [9], “absolutely no effect”. Also, the solubility entry in [2] is “much higher solubility”. Also, the “potency in a panel of cancer cell lines” value in data set [7] is recorded as “potency as anti-cancer drug in all of them”.

`NC(=O)C(Br)CCC(Br)C(N)=O` (stereo not drawn) [compound 1, 2,5 dibromohexanediamide]: in data set [10] (PBS buffer pH 8.0, 1 h, 37°C), the “equivalents at which Cys253 was modified” value worked out at 200 eq and the “equivalents at which Cys336 was modified” value amounted to 300 eq. For the same compound, the “equivalents at which Cys336 was modified, in some reactions” value in [10] (in some reactions) is listed as 200 eq. Also, the “equivalents at which almost all cysteines (exception Cys110) were modified” value in [10] (in vitro) is “above 500 eq”.
